Measurements published in ChEMBL document CHEMBL1914323, “Tricyclic aminopyrimidine histamine H4 receptor antagonists” (Bioorg Med Chem Lett, 2011).
pIC50, pKi: −log10 of the molar value. Values after ≈ are worked out from the molar mass of the structure shown. Active and inactive are the calls of the source. The calls are words filed in the database; no cut-off is given here.

How the values were obtained:
Histamine H4 receptor [1] = molecular target: T1, Histamine H4 receptor (Homo sapiens, UniProt Q9H3N8); experiment: Displacement of [3H]histamine from recombinant human histamine H4 receptor
[2] = Metabolic stability in human liver microsomes after 15 mins; format: ADME, Microsome; conditions: read-out: Stability
[3] = Metabolic stability in rat liver microsomes after 15 mins; format: ADME, Microsome; conditions: read-out: Stability
Histamine H4 receptor [4] = molecular target: T1, Histamine H4 receptor; experiment: Antagonist activity at recombinant human histamine H4 receptor; format: functional; conditions: read-out: pA2 (converted)
[5] = Metabolic stability in human liver microsomes assessed as half life; format: ADME, Microsome
[6] = Metabolic stability in rat liver microsomes assessed as half life; format: ADME, Microsome
[7] = Solubility of the compound at pH 7; format: physicochemical; conditions: buffer
[8] = Half life in dog at 2 mg/kg, iv; format: ADME, organism-based, Canis lupus familiaris; design: dose 2 mg/kg, route intravenous; conditions: in vivo
[9] = Clearance in dog at 2 mg/kg, iv; format: ADME, organism-based, Canis lupus familiaris; design: dose 2 mg/kg, route intravenous; conditions: in vivo
[10] = Half life in rat at 2 mg/kg, iv; format: ADME, organism-based; design: dose 2 mg/kg, route intravenous; conditions: in vivo
Mus musculus = experiment: Antiinflammatory activity in BALB/c mouse asthma model assessed as inhibition of ovalbumin-induced eosinophil accumulation in lung lavage at 10 mg/kg, po BID 20 mins prior to each ovalbumin challenge for 4 times measured after 24 hrs by coulter counter assay; format: functional, organism-based; design: dose 10 mg/kg
[11] = Clearance in rat at 2 mg/kg, iv; format: ADME, organism-based; design: dose 2 mg/kg, route intravenous; conditions: in vivo
[12] = Fraction unbound in mouse plasma; format: ADME, cell-free
[13] = Apparent permeability from basolateral to apical side of human Caco2 cells; format: ADME, cell-based; conditions: Caco-2
[14] = Metabolic stability in dog liver microsomes assessed as half life; format: ADME, Canis lupus familiaris, Microsome
[15] = Oral bioavailability in rat at 10 mg/kg; format: ADME, organism-based; conditions: in vivo
[16] = Oral bioavailability in dog at 10 mg/kg; format: ADME, organism-based, Canis lupus familiaris; conditions: in vivo
[17] = Fraction unbound in human plasma; format: ADME, cell-free
[18] = Volume of distribution at steady state in rat at 2 mg/kg, iv; format: ADME, organism-based; design: dose 2 mg/kg, route intravenous; conditions: in vivo, read-out: Vdss
[19] = Cmax in rat at 10 mg/kg, po; format: ADME, organism-based; design: dose 10 mg/kg, route oral; conditions: in vivo
[20] = Half life in rat at 10 mg/kg, po; format: ADME, organism-based; design: dose 10 mg/kg, route oral; conditions: in vivo
[21] = molecular target: T2, Voltage-gated inwardly rectifying potassium channel KCNH2 (Homo sapiens, UniProt Q12809); experiment: Inhibition of human ERG by patch clamp technique
[22] = Apparent permeability from apical to basolateral side of human Caco2 cells; format: ADME, cell-based; conditions: Caco-2
[23] = Volume of distribution at steady state in dog at 2 mg/kg, iv; format: ADME, organism-based, Canis lupus familiaris; design: dose 2 mg/kg, route intravenous; conditions: in vivo, read-out: Vdss
[24] = Half life in dog at 10 mg/kg, po; format: ADME, organism-based, Canis lupus familiaris; design: dose 10 mg/kg, route oral; conditions: in vivo
[25] = Solubility of the compound at pH 2; format: physicochemical; conditions: buffer
[26] = molecular target: T2, Voltage-gated inwardly rectifying potassium channel KCNH2; experiment: Inhibition of human ERG by binding assay
[27] = Cmax in dog at 10 mg/kg, po; format: ADME, organism-based, Canis lupus familiaris; design: dose 10 mg/kg, route oral; conditions: in vivo
[28] = AUC in dog at 2 mg/kg, iv; format: ADME, organism-based, Canis lupus familiaris; design: dose 2 mg/kg, route intravenous; conditions: plasma
[29] = AUC in rat at 2 mg/kg, iv; format: ADME, organism-based; design: dose 2 mg/kg, route intravenous; conditions: plasma

T1 sequence (Q9H3N8 whole entry): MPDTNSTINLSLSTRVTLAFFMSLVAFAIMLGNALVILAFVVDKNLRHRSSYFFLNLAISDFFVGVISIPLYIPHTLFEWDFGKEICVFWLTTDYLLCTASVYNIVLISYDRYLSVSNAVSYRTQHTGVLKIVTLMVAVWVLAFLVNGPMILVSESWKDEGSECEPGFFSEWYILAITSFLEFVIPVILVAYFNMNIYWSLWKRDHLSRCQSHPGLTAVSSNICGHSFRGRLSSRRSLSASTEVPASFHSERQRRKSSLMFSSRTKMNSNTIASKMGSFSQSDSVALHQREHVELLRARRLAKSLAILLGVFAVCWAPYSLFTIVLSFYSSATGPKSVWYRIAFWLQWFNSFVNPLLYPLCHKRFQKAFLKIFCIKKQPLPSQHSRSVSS
T2 sequence (Q12809 whole entry): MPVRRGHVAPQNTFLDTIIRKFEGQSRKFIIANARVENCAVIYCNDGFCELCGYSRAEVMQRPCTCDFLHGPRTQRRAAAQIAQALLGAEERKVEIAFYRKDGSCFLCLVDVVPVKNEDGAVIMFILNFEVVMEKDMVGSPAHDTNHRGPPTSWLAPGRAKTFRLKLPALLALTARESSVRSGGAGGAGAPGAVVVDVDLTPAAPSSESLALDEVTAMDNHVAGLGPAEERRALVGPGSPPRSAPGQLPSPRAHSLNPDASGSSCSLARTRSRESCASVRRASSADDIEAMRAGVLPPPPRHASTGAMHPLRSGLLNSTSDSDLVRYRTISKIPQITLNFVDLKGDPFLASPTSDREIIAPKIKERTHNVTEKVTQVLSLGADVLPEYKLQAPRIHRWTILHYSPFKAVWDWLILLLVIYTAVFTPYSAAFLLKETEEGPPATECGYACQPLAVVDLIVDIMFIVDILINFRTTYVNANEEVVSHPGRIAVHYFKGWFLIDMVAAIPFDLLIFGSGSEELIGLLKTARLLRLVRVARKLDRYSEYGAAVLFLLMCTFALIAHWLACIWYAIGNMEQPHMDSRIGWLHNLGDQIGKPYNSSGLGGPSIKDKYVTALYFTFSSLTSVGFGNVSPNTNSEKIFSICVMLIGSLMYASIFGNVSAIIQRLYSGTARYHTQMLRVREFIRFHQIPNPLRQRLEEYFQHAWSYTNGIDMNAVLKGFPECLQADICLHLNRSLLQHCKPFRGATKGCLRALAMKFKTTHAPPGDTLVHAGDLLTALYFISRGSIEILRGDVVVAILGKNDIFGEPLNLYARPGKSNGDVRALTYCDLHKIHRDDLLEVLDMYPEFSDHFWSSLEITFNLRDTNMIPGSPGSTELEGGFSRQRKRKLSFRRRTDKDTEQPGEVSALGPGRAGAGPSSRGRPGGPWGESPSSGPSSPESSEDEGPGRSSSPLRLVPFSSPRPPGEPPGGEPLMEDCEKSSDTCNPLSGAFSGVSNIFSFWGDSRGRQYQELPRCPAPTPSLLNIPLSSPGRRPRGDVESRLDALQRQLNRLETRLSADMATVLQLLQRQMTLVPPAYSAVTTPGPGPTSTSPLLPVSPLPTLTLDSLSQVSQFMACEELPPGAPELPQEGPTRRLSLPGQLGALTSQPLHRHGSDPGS

CN1CCN(c2nc(N)nc3c4cc(Cl)ccc4[s+]([O-])c23)CC1 (stereo not drawn)
pKi (Histamine H4 receptor [1]): 5.89

Nc1nc(N2C[C@@H]3C[C@H]2CN3)c2oc3ccccc3c2n1
pKi (Histamine H4 receptor [1]): 6.71

CN[C@@H]1CCN(c2nc(N)nc3c2oc2c(Cl)cc(Cl)cc23)C1
pKi (Histamine H4 receptor [1]): 8.10

NC[C@H]1CCN(c2nc(N)nc3c2oc2ccc(Cl)cc23)C1
pKi (Histamine H4 receptor [1]): 6.86

Nc1nc(N2C[C@H]3CCCN[C@H]3C2)c2oc3ccc(Cl)cc3c2n1
pKi (Histamine H4 receptor [1]): 8.33

Nc1nc(N2CCNCC2)c2oc3c(Cl)cc(Cl)cc3c2n1
pKi (Histamine H4 receptor [1]): 6.86

Nc1nc(N2CC3CCNC3C2)c2oc3ncc(Cl)cc3c2n1 (stereo not drawn)
pKi (Histamine H4 receptor [1]): 6.86

Nc1nc(N2C[C@@H]3C[C@H]2CN3)c2oc3cccc(Cl)c3c2n1
pKi (Histamine H4 receptor [1]): 6.35

CN1CCN(c2nc(N)nc3c2oc2ccc(Cl)cc23)CC1
remaining at […] [2]: 84%
pKi (Histamine H4 receptor [1]): 10.00
remaining at […] [3]: 0.3%
Kb (Histamine H4 receptor [4]): 2 nM

CN(C)C1CCN(c2ncnc3c2sc2ccccc23)CC1
pKi (Histamine H4 receptor [1]): < 5.00

CN[C@@H]1CCN(c2nc(N)nc3c2oc2ccc(Cl)cc23)C1
pKi (Histamine H4 receptor [1]): 9.40

CN[C@@H]1CCN(c2nc(N)nc3c2oc2ccc(Br)cc23)C1
pKi (Histamine H4 receptor [1]): 9.15

CN[C@@H]1CCN(c2nc(N)nc3c2sc2ccc(Cl)cc23)C1
pKi (Histamine H4 receptor [1]): 8.00

CN1CCN(c2ncnc3c2oc2ccc(Cl)cc23)CC1
half-life [5]: < 0.0833 h
half-life [6]: < 0.0833 h
pKi (Histamine H4 receptor [1]): 8.33
solubility [7]: 0.053 µM (≈ 0.016 µg/mL)
Kb (Histamine H4 receptor [4]): 2.51 nM

CN[C@H]1CCN(c2nc(N)nc3c2oc2ccc(Cl)cc23)C1
pKi (Histamine H4 receptor [1]): 8.70

CN1CCN(c2nc(N)nc3c2sc2cc(Cl)ccc23)CC1
pKi (Histamine H4 receptor [1]): 7.74

CN[C@@H]1CCN(c2nc(N)nc3c2oc2ccc(OC)cc23)C1
pKi (Histamine H4 receptor [1]): 7.96

CN1CCN(c2nc(N)nc3c2sc2ccc(Cl)cc23)CC1
pKi (Histamine H4 receptor [1]): 9.52

Nc1nc(N2CCNCC2)c2oc3ncc(Cl)cc3c2n1
pKi (Histamine H4 receptor [1]): 7.46

CN[C@@H]1CCN(c2nc(N)nc3c2oc2cccc(Cl)c23)C1
pKi (Histamine H4 receptor [1]): 7.40

Nc1nc(N2CC[C@@H](NCCO)C2)c2oc3ccc(Cl)cc3c2n1
pKi (Histamine H4 receptor [1]): 7.34

Nc1nc(N2CCNCC2)c2oc3cccc(Cl)c3c2n1
pKi (Histamine H4 receptor [1]): 5.98

Cc1csc2c(N3CCCN(C)CC3)ncnc12
pKi (Histamine H4 receptor [1]): < 5.00

Nc1nc(N2CCC[C@H](N)C2)c2oc3ccc(Cl)cc3c2n1
pKi (Histamine H4 receptor [1]): 8.24

CN[C@@H]1CCN(c2nc(N)nc3c2oc2ncc(Cl)cc23)C1
half-life [8]: 9.7 h
clearance [9]: 21.7 mL/min/kg
half-life [10]: 1.2 h
inhibition (Mus musculus): Active
clearance [11]: 68.3 mL/min/kg
fraction unbound [12]: 0.18
Papp B→A [13]: 22 ×10⁻⁶ cm/s
half-life [14]: > 3 h
half-life [5]: > 3 h
bioavailability [15]: 91%
bioavailability [16]: 91%
fraction unbound [17]: 0.43
Vd [18]: 6.9 L/kg
Cmax [19]: 1200 nM
half-life [20]: 6.8 h
INH [21]: > 3 µM
Papp A→B [22]: 23 ×10⁻⁶ cm/s
Vd [23]: 16.5 L/kg
half-life [24]: 10.5 h
solubility [25]: > 0.4 µM
pIC50 [26]: < 5.00
half-life [6]: > 1.02 h
pKi (Histamine H4 receptor [1]): 8.03
Cmax [27]: 1800 nM
solubility [7]: > 0.4 µM
AUC [28]: 5.2 µM·h
Kb (Histamine H4 receptor [4]): 5.01 nM
AUC [29]: 1.6 µM·h

CN1CCN(c2ncnc3c2oc2ccccc23)CC1
half-life [5]: < 0.0833 h
pKi (Histamine H4 receptor [1]): 7.25

CN[C@@H]1CCN(c2nc(N)nc3c2sc2cc(C(F)(F)F)ccc23)C1
pKi (Histamine H4 receptor [1]): 6.90

Nc1nc(N2C[C@@H]3C[C@H]2CN3)c2oc3ccc(Cl)cc3c2n1
pKi (Histamine H4 receptor [1]): 7.59

CN1CCN(c2nc(N)nc3c2oc2ncc(Cl)cc23)CC1
pKi (Histamine H4 receptor [1]): 7.48

CN1CCN(CCCOc2ccc(-c3nc4cc(Cl)ccc4[nH]3)cc2)CC1
pKi (Histamine H4 receptor [1]): 6.92

Nc1nc(N2C[C@@H]3CCCN[C@@H]3C2)c2oc3ccc(Cl)cc3c2n1
pKi (Histamine H4 receptor [1]): 7.68

Nc1nc(N2C[C@H]3C[C@@H]2CN3)c2oc3ccc(Cl)cc3c2n1
pKi (Histamine H4 receptor [1]): 6.98

CNC1CCN(c2ncnc3c2sc2ccccc23)CC1
pKi (Histamine H4 receptor [1]): < 5.00

CN[C@H]1CCN(c2nc(N)nc3c2sc2ccc(Cl)cc23)C1
pKi (Histamine H4 receptor [1]): 7.12

CN(C)C1CCN(c2ncnc3c2sc2ccccc23)C1 (stereo not drawn)
pKi (Histamine H4 receptor [1]): < 5.00

Nc1nc(N2CCC[C@H](N)C2)c2oc3ccc(C(F)(F)F)cc3c2n1
pKi (Histamine H4 receptor [1]): 7.38

CN1CCCN(c2nc(N)nc3c2oc2ncc(Cl)cc23)CC1
pKi (Histamine H4 receptor [1]): 7.43

Nc1nc(N2CCNCC2)c2oc3ccc(Cl)c(Cl)c3c2n1
pKi (Histamine H4 receptor [1]): 8.11

Nc1nc(N2CCNCC2)c2oc3cccc(F)c3c2n1
pKi (Histamine H4 receptor [1]): 6.84

Nc1nc(N2CCNCC2)c2oc3ccc(F)c(F)c3c2n1
pKi (Histamine H4 receptor [1]): 6.81

C[C@H]1CN(c2nc(N)nc3c2oc2ncc(Cl)cc23)CCN1
pKi (Histamine H4 receptor [1]): 6.05

Nc1nc(N2C[C@@H]3C[C@H]2CN3)c2oc3ncc(Cl)cc3c2n1
pKi (Histamine H4 receptor [1]): < 5.00

NCC1CN(c2nc(N)nc3c2oc2ncc(Cl)cc23)C1
pKi (Histamine H4 receptor [1]): 6.42

CNC1CCN(c2nc(N)nc3c2oc2ccc(Cl)cc23)C1 (stereo not drawn)
remaining at […] [2]: 100%
pKi (Histamine H4 receptor [1]): 9.05
solubility [7]: 0.054 µM (≈ 0.0172 µg/mL)
remaining at […] [3]: 100%
Kb (Histamine H4 receptor [4]): 10 nM

CN[C@H]1CCN(c2nc(N)nc3c2sc2ccc(Br)cc23)C1
pKi (Histamine H4 receptor [1]): 7.19

CN[C@@H]1CCN(c2nc(N)nc3c2oc2ccc(F)cc23)C1
pKi (Histamine H4 receptor [1]): 8.70

CN[C@@H]1CCN(c2nc(N)nc3c2sc2ccc(F)cc23)C1
pKi (Histamine H4 receptor [1]): 7.51

CN1CCN(c2ncnc3c2sc2ccccc23)CC1
pKi (Histamine H4 receptor [1]): 7.28

CN1CCN(c2nc(N)nc3c2oc2ccc(F)c(F)c23)CC1
pKi (Histamine H4 receptor [1]): 6.81

Nc1nc(N2CC[C@@H](N)C2)c2oc3ncc(Cl)cc3c2n1
pKi (Histamine H4 receptor [1]): 7.80

CN1CCN(c2nc(N)nc3c2oc2ccc(Cl)c(Cl)c23)CC1
pKi (Histamine H4 receptor [1]): 8.11

Nc1nc(N2CC(N)C2)c2oc3ncc(Cl)cc3c2n1
pKi (Histamine H4 receptor [1]): 6.21

Cc1csc2c(N3CCN(C)CC3)ncnc12
pKi (Histamine H4 receptor [1]): < 6.69

Nc1nc(N2CCC[C@@H](N)C2)c2oc3ccc(Cl)cc3c2n1
pKi (Histamine H4 receptor [1]): 8.04
